Key:
[1] = test system: circumflex coronary artery; test: Circumflex coronary blood flow in anesthetized dog, electromagnetic flow probes; assay type: in vivo; settings: for increase in circumflex coronary blood flow: adenosine 372 μg/kg/min, Compound A 1.0 μg/kg/min
Method: An anesthetized dog was prepared for cardiovascular function testing.

[2] = Systemic blood pressure response in anesthetized dog; settings: infusion: adenosine 372 μg/kg/min, Compound A 1 μg/kg/min
Method: An anesthetized dog was prepared for cardiovascular function testing. Electromagnetic flow probes were placed on the circumflex coronary artery and the left anterior descending coronary artery. Systemic systolic and diastolic blood pressure and heart rate were also measured.

coronary arterioles = settings: background, cited from earlier work
[3] = test system: circumflex coronary artery; test: Thallium-201 scintigram in anesthetized dogs with stenosed circumflex coronary artery; assay type: in vivo; settings: dog, adenosine 372 μg/kg/min for 6 minutes, Compound A 0.6 μg/kg/min
Text: Dogs were anesthetized and their circumflex coronary artery was stenosed to produce a cardiac perfusion deficit.

[4] = literature; cited from earlier work
A2a (coronary) = A2a (coronary) (Cavia porcellus, UniProt P46616)
Sequence of A2a (coronary) (P46616 whole entry, the tested form may be a part): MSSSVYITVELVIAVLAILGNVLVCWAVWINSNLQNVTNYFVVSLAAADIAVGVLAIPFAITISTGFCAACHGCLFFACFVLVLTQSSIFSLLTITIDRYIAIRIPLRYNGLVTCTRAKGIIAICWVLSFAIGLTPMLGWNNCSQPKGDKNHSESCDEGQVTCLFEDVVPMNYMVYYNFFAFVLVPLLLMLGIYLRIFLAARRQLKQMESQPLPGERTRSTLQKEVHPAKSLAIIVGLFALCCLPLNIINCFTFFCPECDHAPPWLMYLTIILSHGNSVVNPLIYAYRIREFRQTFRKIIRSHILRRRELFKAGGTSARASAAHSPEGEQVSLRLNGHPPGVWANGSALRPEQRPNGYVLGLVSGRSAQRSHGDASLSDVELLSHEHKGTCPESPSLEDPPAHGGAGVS
Method: An isolated guinea pig heart preparation was set up using well-known techniques. The heart was perfused with a constant flow pump through the coronary vessels with a oxygenated balanced salt solution. The coronary perfusion pressure and the EKG were measured. Under constant flow, a decrease in coronary perfusion pressure indicates dilation (A2a effect).

A1 (EKG) = target: T1, A1 (EKG) (Cavia porcellus, UniProt P47745); test: A50 for decrease in heart rate or conduction velocity on the EKG (A1 effect) in the isolated guinea pig heart
T1 construct: An isolated guinea pig heart preparation was set up using well-known techniques; from tissue; host or cells: isolated perfused guinea pig heart
T1 sequence (P47745 1-326): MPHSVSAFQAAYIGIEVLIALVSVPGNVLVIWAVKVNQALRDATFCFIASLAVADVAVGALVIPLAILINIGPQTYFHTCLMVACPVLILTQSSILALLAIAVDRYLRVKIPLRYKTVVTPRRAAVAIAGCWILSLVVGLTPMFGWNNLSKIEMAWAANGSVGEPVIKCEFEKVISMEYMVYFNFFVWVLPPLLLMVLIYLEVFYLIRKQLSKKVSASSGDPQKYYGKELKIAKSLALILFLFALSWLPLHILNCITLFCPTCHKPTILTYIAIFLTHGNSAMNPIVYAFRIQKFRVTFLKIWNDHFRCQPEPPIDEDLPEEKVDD

[5] = infusion: adenosine 372 μg/kg/min, Compound A 1 μg/kg/min

| Structure (SMILES) | increase in circumflex coronary blood flow [1] [%] | CHANGE IN […] FLOW [1, 5] | CHANGE IN SYSTOLIC BLOOD PRESSURE [2] [%] | DURATION OF RESPONSE [2] [min] | duration of coronary blood flow effect (coronary arterioles) | heart block (coronary arterioles; particularly at doses near 1 mg/kg) | perfusion defect shown on thallium-201 scintigram [3] | duration of significant hypotensive response [4] | reflex tachycardia [4] | CHANGE IN CIRCUMFLEX CORONARY FLOW [1, 5] | S[…] A1/A2a (A2a (coronary); A50 EKG (A1) over A50 coronary (A2a)) | potency relative to adenosine in causing coronary vasodilation (A2a (coronary); isolated guinea pig heart, vs adenosine) [times] | EC50 (A2a (coronary); read-out: A50 CORONARY (A2a EFFECT), isolated guinea pig heart, concentration producing a 50% maximal response) [nM] | EC50 (A1 (EKG)) [nM] |
| --- | --- | --- | --- | --- | --- | --- | --- | --- | --- | --- | --- | --- | --- | --- |
| Nc1ncnc2c1ncn2[C@@H]1O[C@H](CO)[C@@H](O)[C@H]1O [Adenosine, adenosine] | 300 | +300% | -25 | 5 | short-lasting | even blocks (stops) the heart beat | clearly showed a perfusion defect |  |  |  |  |  |  |  |
| CCNC(=O)[C@H]1O[C@@H](n2cnc3c(N)nc(NCCc4ccc(CCC(=O)O)cc4)nc32)[C@H](O)[C@@H]1O [CGS 21680] |  |  |  |  |  |  |  | more than 24 hrs | significant reflex tachycardia |  |  |  |  |  |
| Nc1nc(NN=CC2CCCCC2)nc2c1ncn2[C@@H]1O[C@H](CO)[C@@H](O)[C@H]1O [Compound A] | 500 |  |  | 15 |  |  |  |  |  | +500% | 15,000 | 250 | 0.2 | 3000 |

From patent publication US5477857A, “Diagnostic uses of hydrazinoadenosines” (priority 1993, dated 1995)
